Source: ChEMBL document CHEMBL1201862, “PubChem BioAssay data set” (2004)
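Interpolation was linear, between the two tested concentrations surrounding the appropriate level; five concentrations were tested over 48 hours in 96-well plates. GI50: concentration for 50% inhibition of growth.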 Calls of active or inactive are those of the source. Rule as the data show it: active = GI50 up to about 1.1 µM and inactive = higher.

What was measured:
Assay in all cases: NCI anticancer screen, dose series, 48 h
SF-295 = test system: SF-295
NCI-H23 = test system: NCI-H23
MDA-MB-231 = test system: MDA-MB-231
SNB-75 = test system: SNB-75
SK-MEL-5 = test system: SK-MEL-5
MCF7 = test system: MCF7
K562 = test system: K562
Hs-578T = test system: Hs-578T
HL-60 = test system: HL-60
OVCAR-8 = test system: OVCAR-8
NCI/ADR-RES = test system: NCI/ADR-RES
RXF 393 = test system: RXF 393
NCI-H522 = test system: NCI-H522
SNB-19 = test system: SNB-19
KM12 = test system: KM12
SN12C = test system: SN12C
OVCAR-3 = test system: OVCAR-3
LOX IMVI = test system: LOX IMVI
HOP-92 = test system: HOP-92
SR = test system: SR

| SMILES | GI50 (SF-295) | GI50 (NCI-H23) | GI50 (MDA-MB-231) | GI50 (SNB-75) | GI50 (SK-MEL-5) | GI50 (MCF7) | GI50 (K562) | GI50 (Hs-578T) | GI50 (HL-60) | GI50 (OVCAR-8) | GI50 (NCI/ADR-RES) | GI50 (RXF 393) | GI50 (NCI-H522) | GI50 (SNB-19) | GI50 (KM12) | GI50 (SN12C) | GI50 (OVCAR-3) | GI50 (LOX IMVI) | GI50 (HOP-92) | GI50 (SR) |
| --- | --- | --- | --- | --- | --- | --- | --- | --- | --- | --- | --- | --- | --- | --- | --- | --- | --- | --- | --- | --- |
| CCC1(OC(=O)CNC)C(=O)OCc2c1cc1n(c2=O)Cc2cc3ccccc3nc2-1 (stereo not given) | < 0.01 µM (active) | < 0.01 µM (active) | 0.31 µM (active) | < 0.0104 µM (active) | < 0.0125 µM (active) | < 0.01 µM (active) | 0.0303 µM (active) | 0.403 µM (active) | < 0.01 µM (active) | 0.0126 µM (active) | < 0.01 µM (active) | 0.0185 µM (active) | < 0.0116 µM (active) | < 0.01 µM (active) | 0.0685 µM (active) | < 0.01 µM (active) | 0.0713 µM (active) | < 0.01 µM (active) | 0.0491 µM (active) | < 0.01 µM (active) |
| C=CCN1C(=O)/C(=C/c2ccc(C)cc2)NC1=S | 75 µM (inactive) | 57.5 µM (inactive) | 60.1 µM (inactive) | > 100 µM (inactive) | 39.6 µM (inactive) | 70.6 µM (inactive) | 41.9 µM (inactive) | > 100 µM (inactive) | 20 µM (inactive) | > 100 µM (inactive) | 81.7 µM (inactive) | > 100 µM (inactive) | 43 µM (inactive) | > 100 µM (inactive) | 97.7 µM (inactive) | > 100 µM (inactive) | > 100 µM (inactive) | 63.2 µM (inactive) | 59.3 µM (inactive) | 85.9 µM (inactive) |
| C[C@]12CC[C@H]3[C@@H](CCC4=CC(=O)C=C[C@@]43OC(=O)C(F)(F)F)[C@@H]1CCC2=O | > 100 µM (inactive) | > 100 µM (inactive) | > 100 µM (inactive) | > 100 µM (inactive) | > 100 µM (inactive) | > 100 µM (inactive) | > 100 µM (inactive) | > 100 µM (inactive) | > 100 µM (inactive) | > 100 µM (inactive) | > 65.8 µM (inactive) | > 100 µM (inactive) | > 84.1 µM (inactive) | > 33.6 µM (inactive) | > 100 µM (inactive) | > 100 µM (inactive) | > 100 µM (inactive) | > 100 µM (inactive) | > 100 µM (inactive) | > 100 µM (inactive) |
| CN(C)CCCNC(=O)CCNC(=O)c1cc(NC(=O)c2cc(NC(=O)c3cc(NC(=O)c4nc(NC(=O)CCCNC(=O)c5cc(NC(=O)c6cc(NC(=O)c7cc(NC(=O)c8nccn8C)cn7C)cn6C)cn5C)cn4C)cn3C)cn2C)cn1C | > 100 µM (inactive) | > 100 µM (inactive) | > 100 µM (inactive) | > 100 µM (inactive) | > 100 µM (inactive) | > 100 µM (inactive) | > 100 µM (inactive) | > 100 µM (inactive) | > 100 µM (inactive) | > 100 µM (inactive) | > 100 µM (inactive) | > 100 µM (inactive) | > 100 µM (inactive) | > 100 µM (inactive) | 73.5 µM (inactive) | > 100 µM (inactive) | > 100 µM (inactive) | > 100 µM (inactive) | > 100 µM (inactive) | > 100 µM (inactive) |
| CC(C)(C)C#CI1OC(=O)c2ccccc21 | 14.3 µM (inactive) | 3.48 µM (inactive) | 5.94 µM (inactive) | 7.28 µM (inactive) | 6.08 µM (inactive) | 4.03 µM (inactive) | 1.91 µM (inactive) | 8.75 µM (inactive) | 0.513 µM (active) | 4.36 µM (inactive) | 5.52 µM (inactive) | 3.62 µM (inactive) | 1.76 µM (inactive) | 9.27 µM (inactive) | 6.85 µM (inactive) | 5.2 µM (inactive) | 2.99 µM (inactive) | 1.09 µM (active) | 1.72 µM (inactive) | 0.74 µM (active) |
| Cc1ccc([N+](=O)[O-])cc1S(=O)(=O)Nc1ccc(C2=NN(c3ccc([N+](=O)[O-])cc3[N+](=O)[O-])C(c3cccs3)C2)cc1 (stereo not given) | 25.6 µM (inactive) | 18.7 µM (inactive) | 15 µM (inactive) | 19.5 µM (inactive) | 11.5 µM (inactive) | 17.3 µM (inactive) | 17.2 µM (inactive) | 23.8 µM (inactive) | 23.1 µM (inactive) | 22 µM (inactive) | 17.2 µM (inactive) | 18.6 µM (inactive) | 10.5 µM (inactive) | 27.9 µM (inactive) | 21 µM (inactive) | 18 µM (inactive) | 16.1 µM (inactive) | 18.3 µM (inactive) | 16.1 µM (inactive) | 21 µM (inactive) |
| O=C(O)CCNc1ncc2c(n1)-c1ccccc1OC2 | > 100 µM (inactive) | > 100 µM (inactive) | > 100 µM (inactive) | 28.8 µM (inactive) | > 100 µM (inactive) | > 100 µM (inactive) | > 100 µM (inactive) | 61 µM (inactive) | > 100 µM (inactive) | > 100 µM (inactive) | > 100 µM (inactive) | > 100 µM (inactive) | > 100 µM (inactive) | > 100 µM (inactive) | > 100 µM (inactive) | > 100 µM (inactive) | > 100 µM (inactive) | > 100 µM (inactive) | 29 µM (inactive) | > 100 µM (inactive) |
| CC(O)C1(CNc2cc(Cl)nc(N)n2)CCCC1 (stereo not given) | > 100 µM (inactive) | 90.4 µM (inactive) | > 100 µM (inactive) | 71 µM (inactive) | > 100 µM (inactive) | > 100 µM (inactive) | > 100 µM (inactive) | > 100 µM (inactive) | > 100 µM (inactive) | > 100 µM (inactive) | > 100 µM (inactive) | > 100 µM (inactive) | > 100 µM (inactive) | > 100 µM (inactive) | > 100 µM (inactive) | > 100 µM (inactive) | > 100 µM (inactive) | > 100 µM (inactive) | 98.9 µM (inactive) | > 100 µM (inactive) |
| O=C(O)CN1CCNCCN(CC(=O)O)CCNCC1 | > 87.7 µM (inactive) | 44.4 µM (inactive) | > 100 µM (inactive) | > 21.5 µM (inactive) | 5.28 µM (inactive) | 28.2 µM (inactive) | 3.85 µM (inactive) | > 24.1 µM (inactive) | 3.41 µM (inactive) | 42.3 µM (inactive) | > 100 µM (inactive) | > 100 µM (inactive) | 14.7 µM (inactive) | > 100 µM (inactive) | 5.75 µM (inactive) | > 100 µM (inactive) | > 100 µM (inactive) | 79.4 µM (inactive) | 82.4 µM (inactive) | 5.14 µM (inactive) |
| Cc1cc(=O)oc2c(CNC(CC(C)C)C(=O)O)c(O)ccc12 (stereo not given) | > 100 µM (inactive) | > 100 µM (inactive) | > 100 µM (inactive) | 39.7 µM (inactive) | > 100 µM (inactive) | > 100 µM (inactive) | > 100 µM (inactive) | > 100 µM (inactive) | > 100 µM (inactive) | > 100 µM (inactive) | > 100 µM (inactive) | > 100 µM (inactive) | > 100 µM (inactive) | > 100 µM (inactive) | > 100 µM (inactive) | > 100 µM (inactive) | > 100 µM (inactive) | > 100 µM (inactive) | > 100 µM (inactive) | > 100 µM (inactive) |
| CCN(CC)c1ccc2cc(C(N)=O)/c(=N/c3ccc(F)cc3)oc2c1 | 10.3 µM (inactive) | 13.4 µM (inactive) | 14.5 µM (inactive) | 20.4 µM (inactive) | > 100 µM (inactive) | 51.4 µM (inactive) | > 100 µM (inactive) | 47.9 µM (inactive) | > 100 µM (inactive) | 22.8 µM (inactive) | 35.6 µM (inactive) | 22.8 µM (inactive) | 11.6 µM (inactive) | 25.5 µM (inactive) | 17.6 µM (inactive) | 45.4 µM (inactive) | > 100 µM (inactive) | 46.1 µM (inactive) | 18.7 µM (inactive) | 4.65 µM (inactive) |
| CN(C)c1ccc(C(=N/N=C2\C(=O)Nc3ccccc32)c2ccc(N(C)C)cc2)cc1 | 0.308 µM (active) | 1.73 µM (inactive) | 0.767 µM (active) | 0.214 µM (active) | 0.417 µM (active) | 0.266 µM (active) | 0.196 µM (active) | 0.836 µM (active) | 0.363 µM (active) | 1 µM (active) | 0.218 µM (active) | 0.172 µM (active) | 0.167 µM (active) | 1.22 µM (inactive) | 0.278 µM (active) | 1.67 µM (inactive) | 0.513 µM (active) | 0.748 µM (active) | 12.8 µM (inactive) | 0.0262 µM (active) |
| CCC(C)OC(=O)/C(Br)=C1/OC(=O)c2ccccc2-c2ccccc21 (stereo not given) | 35.6 µM (inactive) | 50 µM (inactive) | > 10 µM (inactive) | 31.6 µM (inactive) | 21.2 µM (inactive) | 41 µM (inactive) | 4.42 µM (inactive) | 45.4 µM (inactive) | > 100 µM (inactive) | 37.6 µM (inactive) | 20.4 µM (inactive) | 9.75 µM (inactive) | 18.7 µM (inactive) | 49.5 µM (inactive) | 23.8 µM (inactive) | 34.2 µM (inactive) | 27.4 µM (inactive) | 18.2 µM (inactive) | 27.3 µM (inactive) | > 10 µM (inactive) |
| CCCCCCCC/C=C\CCCCCCC/C=C1/C[C@](/C=C/C(=O)OC)(CO)OC1=O | 2.29 µM (inactive) | 11.2 µM (inactive) | 3.99 µM (inactive) | 7.66 µM (inactive) | 2.84 µM (inactive) | 7.41 µM (inactive) | 0.561 µM (active) | 0.923 µM (active) | 1.63 µM (inactive) | 6.65 µM (inactive) | 10.4 µM (inactive) | 14.2 µM (inactive) | 5.6 µM (inactive) | 7.16 µM (inactive) | 10.9 µM (inactive) | 2.86 µM (inactive) | 11.6 µM (inactive) | 1.6 µM (inactive) | 2.4 µM (inactive) | 3.92 µM (inactive) |
